Measured values reported in patent US20230321023A1, “APPLICATION OF REGULATION OF EYE SCLERA LIPID METABOLISM TO INHIBIT MYOPIA” (Wenzhou Medical University, priority 2020, published 2023).

Key:
FD myopia [1] = assay: FD myopia in guinea pigs, peribulbar injection of DHA, EPA or atropine; type: in vivo, guinea pig; conditions: 2 weeks; for reduction of myopia progression vs Vehicle group: high dose 3.0 μg/day
Experimental: (§1) The test animals were British tricolored short-haired guinea pigs aged 3 weeks. The animals were subjected to monocular form deprivation (FD) by a mask method and were randomly divided into 6 groups, which were treated by peribulbar injection with the following different substances: (1) ethanol solvent group (Vehicle); (2) low-dose DHA group (1.0 μg); (3) high-dose DHA group (3.0 μg): (4) low-dose EPA group (1.0 μg); (5) high-dose EPA group (3.0 μg); and (6) 0.1% atropine group.
The measurement methods of refraction, vitreous chamber depth and eye axis length were the same as those in Example 2.

FD myopia [2] = assay: Optimal treatment scheme: peribulbar DHA/EPA formulations in young guinea pig models with FD myopia; type: in vivo; set-up: Vitreous chamber depth (difference between experimental eye and fellow eye): unit not given here; conditions: FD guinea pigs, total mass 3 μg; for Eye axis length (difference between experimental eye and fellow eye): in mm (unit assumed); for Myopia inhibition rate: 1 W vs Veh
Source text: The optimal treatment protocol or scheme applying ω-3 by means by of feeding and peribulbar injection were investigated, respectively, and some critical findings were shown, especially when the eye was subjected to topical administration, unexpected results were obtained by using DHA alone or a composition of DHA and EPA. The basic experimental procedures were as described above.
However, as the content of EPA increases to become the predominant component (i.e., DHA:EPA<1:1), the efficacy of the mixture of DHA and EPA (the total mass of ocular topical administration is 3 μg in each case) is even better than that of DHA alone, EPA alone, or a mixture of DHA and EPA containing DHA as the main component (i.e., DHA:EPA>1:1, for example, […]) and is statistically significant (Table 1 and FIG. 12). It can be seen that the mixture of DHA and EPA that uses EPA as the predominant component or the predominant active ingredient has the optimal inhibition effect of myopia and myopia-related symptoms. Overall, all the treatment protocols in this example are very effective in inhibiting the negative refraction, eye axis elongation, and vitreous cavity depth increase.

[3] = Safety test, peribulbar injection of DHA; type: in vivo, guinea pig; conditions: peribulbar DHA alone, up to 3 μg/day, vs Vehicle control
Experimental: as §1

[4] = Allergy study, periocular injection in FD animals; type: in vivo; conditions: high-purity DHA 3.0 μg or DHA 3.0 μg+EPA 3.0 μg, 100 μL daily periocular, 2 weeks
Experimental: Animals were randomly divided into three groups: FD+cod liver oil (commercially available ω-3 polyunsaturated fatty acids) group; FD+high-purity drug group 1 (FD+DHA 3.0 μg); and FD+high-purity drug group 2 (FD+“DHA 3.0 μg+EPA 3.0 μg”), and both high-purity drug groups were at a high dose.
After applying a topical anesthetic (one drop of 0.5% propazocaine hydrochloride, Alcon Laboratories, Inc., Puurs, Belgium), 100 μL of drug was daily administered at the surrounding area of FD eyeballs at 9:00 a.m., continuing for 2 weeks. All injections were completed within 10 seconds under dark red light to minimize any possible impact of red light on induced myopic recovery.

Row | SMILES | reduction of myopia progression vs Vehicle group (FD myopia [1]) | Refraction (difference between experimental eye and fellow eye) (FD myopia [2]; 0 W) | Vitreous chamber depth (difference between experimental eye and fellow eye) (FD myopia [2]; 0 W) | Eye axis length (difference between experimental eye and fellow eye) (FD myopia [2]; 0 W) | Myopia inhibition rate (FD myopia [2]) | Refraction (difference between experimental eye and fellow eye) (FD myopia [2]; 1 W) | Vitreous chamber depth (difference between experimental eye and fellow eye) (FD myopia [2]; 1 W) | Eye axis length (difference between experimental eye and fellow eye) (FD myopia [2]; 1 W) | reduced myopia rate (positive control) (FD myopia [1]; 0.1% atropine) | ACD (anterior chamber depth) [3] | LT (lens thickness) [3] | body weight [3] | adverse reactions such as allergies [4]
1 | CC/C=C\C/C=C\C/C=C\C/C=C\C/C=C\CCCC(=O)O [EPA, eicosapentaenoic acid] | 29.6% | −0.40 | 0.00 | 0.01 | 21.0% | −3.42 | 0.07 | 0.07 |  |  |  |  | 
2 | CN1[C@@H]2CC[C@H]1C[C@@H](OC(=O)C(CO)c1ccccc1)C2 (stereo partly drawn) [Atropine, atropine, reference compound] |  |  |  |  |  |  |  |  | 35.6% |  |  |  | 
3 | CC/C=C\C/C=C\C/C=C\C/C=C\C/C=C\C/C=C\CCC(=O)O [DHA, docosahexaenoic acid] | 35.3% | −0.23 | 0.00 | −0.01 | 31.8% | −2.95 | 0.06 | 0.06 |  | no significant ocular differences | no significant ocular differences | no significant ocular differences | no adverse reactions such as allergies
